Assay results published in patent US20100204224A1, “AZACYCLIC COMPOUNDS AS INHIBITORS OF SENSORY NEURONE SPECIFIC SODIUM CHANNELS” (priority 2005, published 2010).
Where a name gives a salt, the structure may show the parent alone. Read-outs that look alike come from different tables or passages of the source.

Target: T1, human Nav1.8 (hNav1.8) ion channel (Homo sapiens, UniProt Q9Y5Y9)
T1 construct: expressed in transfected cells
Assay: Inhibition of human Nav1.8 stably expressed in SH-SY-5Y cells (membrane potential dye fluorescence assay)
Format: cell-based
Conditions: FLIPR membrane potential dye, 10 μM pyrethroid, 250 nM TTX, test concentration range 100 μM-0.05 μM

[1] = SH-SY-5Y hNav1.8 cells, read-out: hNav1.8 IC50
[2] = hNav1.8 IC50, SH-SY-5Y hNav1.8 cells

T1 sequence (Q9Y5Y9 whole entry): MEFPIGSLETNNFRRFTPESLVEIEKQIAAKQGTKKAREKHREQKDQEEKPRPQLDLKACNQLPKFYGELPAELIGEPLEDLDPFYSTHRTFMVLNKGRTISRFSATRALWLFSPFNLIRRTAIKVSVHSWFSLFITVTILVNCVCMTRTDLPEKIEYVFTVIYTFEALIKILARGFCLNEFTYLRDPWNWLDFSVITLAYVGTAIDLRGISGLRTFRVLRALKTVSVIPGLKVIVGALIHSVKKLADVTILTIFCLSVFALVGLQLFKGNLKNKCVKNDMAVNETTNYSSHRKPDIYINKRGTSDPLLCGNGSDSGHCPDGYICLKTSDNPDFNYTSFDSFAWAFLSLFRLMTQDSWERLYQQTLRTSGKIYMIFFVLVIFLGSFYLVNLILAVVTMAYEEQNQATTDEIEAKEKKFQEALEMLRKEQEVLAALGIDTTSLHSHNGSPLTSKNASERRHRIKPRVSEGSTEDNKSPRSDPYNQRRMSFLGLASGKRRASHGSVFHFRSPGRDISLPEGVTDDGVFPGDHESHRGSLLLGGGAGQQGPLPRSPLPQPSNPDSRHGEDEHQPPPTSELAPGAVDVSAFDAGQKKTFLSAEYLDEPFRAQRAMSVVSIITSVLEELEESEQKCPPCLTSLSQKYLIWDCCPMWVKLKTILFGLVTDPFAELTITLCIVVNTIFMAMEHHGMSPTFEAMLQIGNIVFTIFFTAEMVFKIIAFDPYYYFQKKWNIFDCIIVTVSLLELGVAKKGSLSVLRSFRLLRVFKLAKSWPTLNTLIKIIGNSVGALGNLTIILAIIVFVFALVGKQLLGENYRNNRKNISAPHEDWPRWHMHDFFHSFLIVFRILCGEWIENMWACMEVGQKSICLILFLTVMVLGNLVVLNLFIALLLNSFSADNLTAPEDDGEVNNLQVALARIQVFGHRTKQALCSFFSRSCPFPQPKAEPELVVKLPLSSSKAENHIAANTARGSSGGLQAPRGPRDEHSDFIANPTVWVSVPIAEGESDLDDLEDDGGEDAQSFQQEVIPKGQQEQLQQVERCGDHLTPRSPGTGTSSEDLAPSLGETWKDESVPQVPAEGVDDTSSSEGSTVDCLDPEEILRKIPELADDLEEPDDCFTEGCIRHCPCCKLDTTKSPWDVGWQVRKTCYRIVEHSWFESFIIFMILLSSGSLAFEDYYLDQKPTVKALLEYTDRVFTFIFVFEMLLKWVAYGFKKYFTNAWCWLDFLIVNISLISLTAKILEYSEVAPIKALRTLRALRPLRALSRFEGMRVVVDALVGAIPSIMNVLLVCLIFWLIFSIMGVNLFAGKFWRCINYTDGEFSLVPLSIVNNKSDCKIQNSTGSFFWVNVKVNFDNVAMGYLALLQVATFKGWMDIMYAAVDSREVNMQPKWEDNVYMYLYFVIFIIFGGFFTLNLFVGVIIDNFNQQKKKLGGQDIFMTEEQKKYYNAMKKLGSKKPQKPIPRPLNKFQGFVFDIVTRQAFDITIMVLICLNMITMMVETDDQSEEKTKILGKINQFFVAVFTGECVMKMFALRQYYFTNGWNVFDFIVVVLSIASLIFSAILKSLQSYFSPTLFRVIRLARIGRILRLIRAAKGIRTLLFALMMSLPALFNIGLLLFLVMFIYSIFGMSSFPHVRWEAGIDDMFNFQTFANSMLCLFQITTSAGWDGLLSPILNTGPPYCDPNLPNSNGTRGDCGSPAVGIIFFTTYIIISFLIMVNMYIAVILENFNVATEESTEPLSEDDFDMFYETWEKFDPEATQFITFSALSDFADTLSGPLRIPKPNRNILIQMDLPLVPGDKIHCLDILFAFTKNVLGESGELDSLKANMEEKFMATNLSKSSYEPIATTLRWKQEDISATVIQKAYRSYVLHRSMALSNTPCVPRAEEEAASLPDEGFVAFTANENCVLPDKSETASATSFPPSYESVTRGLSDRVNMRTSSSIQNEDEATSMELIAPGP

**Q.** With `CC(c1ccc(F)cc1Cl)N1CC2CC1CN2C(=O)c1ccc(Oc2ccc(F)cc2)cc1` (stereo not shown) [Example 163, {5-[1-(2-Chloro-4-fluoro-phenyl)-ethyl]-2,5-diaza-bicyclo[2.2.1]hept-2-yl}-[4-(4-fluoro-phenoxy)-phenyl]-methanone] as the compound, how does the IC50 [1] read?
**A.** 17700 nM

**Q.** `CC(c1ccc(F)cc1Cl)N1CC2CC1CN2C(=O)c1ccc(Oc2ccc(F)cc2)cc1` (stereo not shown) [Example 164, {5-[1-(2-Chloro-4-fluoro-phenyl)-ethyl]-2,5-diaza-bicyclo[2.2.1]hept-2-yl}-[4-(4-fluoro-phenoxy)-phenyl]-methanone] was tested. Which IC50 [1] did it give?
**A.** 13500 nM

**Q.** With `CC(c1c(F)cccc1Cl)N1CC2CC1CN2C(=O)c1ccc(Oc2ccc(F)cc2)cc1` (stereo not shown) [Example 167, {5-[1-(2-Chloro-6-fluoro-phenyl)-ethyl]-2,5-diaza-bicyclo[2.2.1]hept-2-yl}-[4-(4-fluoro-phenoxy)-phenyl]-methanone] as the compound, how does the IC50 [1] read?
**A.** 2220 nM

**Q.** How did the IC50 [1] turn out when `CC(c1c(F)cccc1Cl)N1CC2CC1CN2C(=O)c1ccc(Oc2ccc(F)cc2)cc1` (stereo not shown) [Example 168, {5-[1-(2-Chloro-6-fluoro-phenyl)-ethyl]-2,5-diaza-bicyclo[2.2.1]hept-2-yl}-[4-(4-fluoro-phenoxy)-phenyl]-methanone] was run?
**A.** 1700 nM

**Q.** With `CC(c1ccccc1Cl)N1CC2CC1CN2C(=O)c1ccc(Oc2cccc(F)c2)cc1` (stereo not shown) [Example 169, {5-[1-(2-Chloro-phenyl)-ethyl]-2,5-diaza-bicyclo[2.2.1]hept-2-yl}-[4-(3-fluoro-phenoxy)-phenyl]-methanone] as the compound, how does the IC50 [1] read?
**A.** 840 nM

**Q.** Which IC50 [2] does the source give for `CC(c1ccccc1Cl)N1CC2CC1CN2C(=O)Cc1ccc(Oc2cccc(F)c2)cc1` (stereo not shown) [Example 170, 1-{5-[1-(2-Chloro-phenyl)-ethyl]-2,5-diaza-bicyclo[2.2.1]hept-2-yl}-2-[4-(3-fluoro-phenoxy)-phenyl]-ethanone] here?
**A.** 1570 nM

**Q.** For `Cc1ccccc1C(C)N1CC2CC1CN2C(=O)Cc1ccc(Oc2cccc(F)c2)cc1` (stereo not shown) [Example 171, 2-[4-(3-Fluoro-phenoxy)-phenyl]-1-[5-(1-o-tolyl-ethyl)-2,5-diaza-bicyclo[2.2.1]hept-2-yl]-ethanone], which IC50 [2] is on record?
**A.** 670 nM

**Q.** With `Cc1ccccc1C(C)N1CC2CC1CN2C(=O)Cc1ccc(Oc2cccc(F)c2)cc1` (stereo not shown) [Example 172, 2-[4-(3-Fluoro-phenoxy)-phenyl]-1-[5-(1-o-tolyl-ethyl)-2,5-diaza-bicyclo[2.2.1]hept-2-yl]-ethanone] as the compound, how does the IC50 [2] read?
**A.** 710 nM

**Q.** For `CC(c1ccccc1Cl)N1CC2CC1CN2C(=O)c1ccc(Oc2cccc(C#N)c2)cc1` (stereo not shown) [Example 173, 3-(4-{5-[1-(2-Chloro-phenyl)-ethyl]-2,5-diaza-bicyclo[2.2.1]heptane-2-carbonyl}-phenoxy)-benzonitrile], which IC50 [1] is on record?
**A.** 1930 nM

**Q.** Which IC50 [1] does the source give for `CC(c1ccccc1Cl)N1CC2CC1CN2C(=O)c1ccc(Oc2cccc(C#N)c2)cc1` (stereo not shown) [Example 174, 3-(4-{5-[1-(2-Chloro-phenyl)-ethyl]-2,5-diaza-bicyclo[2.2.1]heptane-2-carbonyl}-phenoxy)-benzonitrile] here?
**A.** 1400 nM

**Q.** `CC(c1ccccc1Cl)N1CC2CC1CN2C(=O)c1ccc(Oc2cccc(F)c2)cc1` (stereo not shown) [Example 175, {5-[1-(2-Chloro-phenyl)-ethyl]-2,5-diaza-bicyclo[2.2.1]hept-2-yl}-[4-(3-fluoro-phenoxy)-phenyl]-methanone] was tested. Which IC50 [1] did it give?
**A.** 640 nM

**Q.** With `CC(c1ccccc1Cl)N1CC2CC1CN2C(=O)c1ccc(Oc2ccc(F)cc2)c(F)c1` (stereo not shown) [Example 178, {5-[1-(2-Chloro-phenyl)-ethyl]-2,5-diaza-bicyclo[2.2.1]hept-2-yl}-[3-fluoro-4-(4-fluoro-phenoxy)-phenyl]-methanone methanesulfonate salt] as the compound, how does the IC50 [1] read?
**A.** 610 nM

**Q.** `CC(c1ccccc1Cl)N1CC2CC1CN2C(=O)c1ccc(Oc2ccc(F)cc2)c(F)c1` (stereo not shown) [Example 179, {5-[1-(2-Chloro-phenyl)-ethyl]-2,5-diaza-bicyclo[2.2.1]hept-2-yl}-[3-fluoro-4-(4-fluoro-phenoxy)-phenyl]-methanone methanesulfonate salt] was tested. Which IC50 [1] did it give?
**A.** 1340 nM

**Q.** How did the IC50 [1] turn out when `CC(c1ccccn1)N1CC2CC1CN2C(=O)c1ccc(Oc2cccc(C#N)c2)cc1` (stereo not shown) [Example 180, 3-{4-[5-(1-Pyridin-2-yl-ethyl)-2,5-diaza-bicyclo[2.2.1]heptane-2-carbonyl]-phenoxy}-benzonitrile] was run?
**A.** 4650 nM

**Q.** With `CC(c1ccccn1)N1CC2CC1CN2C(=O)c1ccc(Oc2ccc(F)cc2)cc1` (stereo not shown) [Example 181, [4-(4-Fluoro-phenoxy)-phenyl]-[5-(1-pyridin-2-yl-ethyl)-2,5-diaza-bicyclo[2.2.1]hept-2-yl]-methanone] as the compound, how does the IC50 [1] read?
**A.** 9930 nM

**Q.** With `CC(c1ccccc1Cl)N1CC2CC1CN2C(=O)Nc1ccc(Oc2ccc(F)cc2)nc1` (stereo not shown) [Example 182, 5-[1-(2-Chloro-phenyl)-ethyl]-2,5-diaza-bicyclo[2.2.1]heptane-2-carboxylic acid [6-(4-fluoro-phenoxy)-pyridin-3-yl]-amide methanesulfonate salt] as the compound, how does the IC50 [1] read?
**A.** 270 nM
